Results published in US6168934A, “Oligosaccharide enzyme substrates and inhibitors: methods and compositions” (The Scripps Research Institute, priority 1998, dated 2001).
Blank lines part the entries; values can stand above or below the molecule they belong to.

Key:
[1] = biological target: β-galactosidase (EC 3.2.1.23 from E. coli) (Escherichia coli, UniProt P00722); assay: Inhibition of β-galactosidase hydrolysis of p-nitrophenyl β-galactoside; type: biochemical; conditions: p-nitrophenyl β-galactoside hydrolysed at the same rate with and without azasugar; concentration not given
Description: Not all of the monosaccharide acceptors of the present invention are suitable substrates for β-galactosidase. For example, when Compound 3 or 4 from Table 2 are used as a substrate, no product was obtained.

[2] = biological target: T1, fucosyl α1,3/1,4 transferase (FucT; EC 2.4.1.65), recombinant (Homo sapiens, UniProt P21217); assay: Fucosyltransferase inhibition studies (IC50); type: biochemical; conditions: 2 mM N-acetyllactosamine; for inhibitory effect: up to concentrations of 50 mg/mL
T1 construct: gift of Dr. J. B. Lowe, University of Michigan
T1 sequence (P21217 1-361): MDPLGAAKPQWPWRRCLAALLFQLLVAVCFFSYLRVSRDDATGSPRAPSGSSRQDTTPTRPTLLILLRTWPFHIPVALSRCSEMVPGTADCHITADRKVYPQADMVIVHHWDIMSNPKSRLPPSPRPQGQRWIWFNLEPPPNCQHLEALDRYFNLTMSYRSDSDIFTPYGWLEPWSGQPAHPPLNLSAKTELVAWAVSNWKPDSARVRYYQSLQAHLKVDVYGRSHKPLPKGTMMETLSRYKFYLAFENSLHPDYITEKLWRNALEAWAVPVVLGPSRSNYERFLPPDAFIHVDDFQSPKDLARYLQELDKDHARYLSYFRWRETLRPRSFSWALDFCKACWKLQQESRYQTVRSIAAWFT
Procedure: For other studies, such as those using a recombinant fucosylα1,3/4transferase (EC 2.4.1.65) whose results are shown in Table 1a, a stock mixture containing 0.25 mM ^14 C-GDP-fucose (5000 cpm/μL), 6.25 mM ATP, 25 mM MnCl2 are 62.5 mM cacodylate buffer, pH 6.2, was admixed fresh on the day of use, and stored on ice. To that solution, Fuc T was added immediately before use, and the reaction was initiated by the combination of 16 μL of that mixture with 4 μL of 100 mM acceptor substrate. The resulting admixture was then incubated at 37° C. for 30-240 minutes, depending upon the acceptor substrate (reactant compound) under study.
In this equation, m=slope and b=y-intercept.
Percent inhibition=m([inhibitor])+b equation 2

[3] = biological target: E. coli CMP-sialic acid synthetase (CMP-NeuAc synthetase, EC 2.7.7.43), native enzyme (Escherichia coli O18:K1:H7, UniProt P13266); assay: Kinetic studies of native CMP-NeuAc synthetase; conditions: pH 9.0, 37° C.
Procedure: (§10) The activity of the native or the modified CMP-NeuAc synthetase was assayed using a thiobarbituric acid method described by Vann et al., J. Biol. Chem., 262:17556 (1987). […] After the mixture was incubated at 37° C. for 30 minutes, 50 mL of 1.6 M NaBH4 was added to destroy excess NeuAc, and the mixture was heated at room temperature for an additional 15 minutes. The mixture was then put in the ice bath and 50 mL of H3 PO4 were added to destroy NaBH4.
(§11) The resulting mixture was kept at zero degrees C for five minutes then incubated at 37° C. for 10 minutes to cleave the phosphoester bond of the formed CMP-NeuAc. The free NeuAc was oxidized with 50 mL of 0.2 M NaIO4 at room temperature for 10 minutes, and 400 mL of 4 percent NaAsO2 in 0.5 N HCl were added. […] After the solution was cooled, 1 mL of the solution was taken out and mixed with 1 mL of cyclohexanone. That mixture was shaken and centrifuged, and the upper layer was taken for measurement at 549 nm (e=4.11 mM^-1 cm^-1).
(§12) where A is [CTP], B is [NeuAc], Ka and Kb are the Michaelis constants for CTP and NeuAc, respectively, and Kia is the dissociation constant (or inhibition constant) for CTP.

[4] = system: CC(=O)N[C@H]1[C@H]([C@H](O)[C@H](O)CO)OC(O)(C(=O)O)C[C@@H]1O; assay: Kinetic studies of modified (tagged) CMP-NeuAc synthetase; type: biochemical, E. coli; conditions: other: pH 9.0, 37° C.
Procedure: (§1) The construction of plasmid CMPSIL-1, which contains the modified CMP-NeuAc synthetase gene (Example 2), was accomplished by the method of Ichikawa et al., J. Am. Chem. Soc., 113:4698 (1991). The CMP-NeuAc synthetase gene was fused with the decapeptide tag sequence Tyr-Pre-[…](SEQ ID NO:3) at the C-terminus, cloned into a lambda ZAP™ vector at EcoRI and XbaI sites and overexpressed in E. coli Sure strain.
(§2) The activity of the native or the modified CMP-NeuAc synthetase was assayed using a thiobarbituric acid method described by Vann et al., J. Biol. Chem., 262:17556 (1987). Briefly, the enzyme was added to a […] buffer containing 5.5 mM CTP, 2.8 mM N-acetylneuraminic acid, 0.2 M Tris, 20 mM MgCl2 and 0.2 mM DTT, pH 9.0, to form a mixture. After the mixture was incubated at 37° C. for 30 minutes, 50 mL of 1.6 M NaBH4 was added to destroy excess NeuAc, and the mixture was heated at room temperature for an additional 15 minutes. The mixture was then put in the ice bath and 50 mL of H3 PO4 were added to destroy NaBH4.
(§3) The resulting mixture was kept at zero degrees C for five minutes then incubated at 37° C. for 10 minutes to cleave the phosphoester bond of the formed CMP-NeuAc. The free NeuAc was oxidized with 50 mL of 0.2 M NaIO4 at room temperature for 10 minutes, and 400 mL of 4 percent NaAsO2 in 0.5 N HCl were added. The solution mixture was the transferred to a test tube containing 1 mL of 0.6 percent thiobarbituric acid in 0.5 M Na2 SO4, and heated in boiled water for 15 minutes. After the solution was cooled, 1 mL of the solution was taken out and mixed with 1 mL of cyclohexanone. That mixture was shaken and centrifuged, and the upper layer was taken for measurement at 549 nm (e=4.11 mM^-1 cm^-1).
(§4) Initial velocities were measured at various concentrations of CTP (1.25-5 mM) and NeuAc (2-8 mM) for kinetic studies. The data were fitted into the sequential bi-bi substrate rate equation 3, shown below, to derive the Michaelis constants and maximum velocity (V) using a Sigma plot program from Sigma Co. [formula] […]

[5] = system: Nc1ccn([C@@H]2O[C@H](COP(=O)(O)OP(=O)(O)OP(=O)(O)O)[C@@H](O)[C@H]2O)c(=O)n1; assay: as above; type: biochemical, E. coli; conditions: other: pH 9.0, 37° C.
Procedure: as §1, §2, §3, §4

[6] = biological target: α-Glucosidase (Brewer's Yeast); assay: Glycosidase inhibition, α-glucosidase (BY); type: biochemical; conditions: p-nitrophenyl α-D-glucoside, PIPES-NaOAc buffer pH 6.5
Description: (§5) Materials: All of the buffers, enzymes, and substrates were purchased from Sigma and used as received. These included piperazine-N,N'-bis (2-ethanesulfonic acid) (PIPES), sodium acetate (NaOAc), ethylenediaminetetraacetic acid (EDTA), β-D-glucosidase (from sweet almond), p-nitrophenyl β-D-glucoside, p-nitrophenyl α-D-glucosidase, p-nitrophenyl α-D-glucoside, β-N-acetyl-D-glucosaminedase, p-nitrophenyl β-N-acetyl-D-glucosaminide, α-D-mannosidase and p-nitrophenyl α-D-mannoside.
(§6) (b) PIPES-NaOAc buffer (0.01 M PIPES, 0.2 M NaOAc and 0.01 mM EDTA, pH 6.5). This buffer was prepared according to the literature procedure [Dale et al., Biochemistry, 24:3530 (1985)].
(d) α-D-Glucosidase: 1.5 mg of solid protein (70 units/mg) were dissolved in 1 mL PIPES-NaOAc buffer solution and used for assays without further dilution.
(§7) (g) Substrate solutions: all substrates were dissolved in the corresponding buffer solution for enzymatic assay.
(§8) For each inhibitor, five inhibitor concentrations, ranging from zero to three times Ki, were generally used to determine the Ki value. […] The amount of enzyme added in each assay was adjusted so that less than 10 percent of the substrate, with its lowest substrate concentration, would be consumed within 45 seconds. Since all of the substrates have p-nitrophenol as leaving group, the assays were monitored at 400 nanometers (nm), where the molecular extinction coefficient, ε, was calibrated to be 3204.5 M^-1 cm^-1 at pH 6.5. The following illustrates the detailed procedure.
(§9) To a 1 mL disposable cuvette were added 950 microliters (μL) of the NaOAc-PIPES buffer solution, 20 μL of the inhibitor solution and 20 μL of the p-nitrophenyl β-D-glucoside solution (100 mM in PIPES-NaOAc buffer, pH 6.5). The solution was well mixed and 20 μL of the β-D-glucosidase solution were injected into the cuvette to start the reaction. The reaction was monitored at 400 nm on a Beckman DU-70 photospectrometer for 45 seconds and the initial hydrolysis rate was calculated. The same procedure was repeated with five other substrate concentrations. […]

[7] = biological target: β-Glucosidase (Sweet Almond); assay: Glycosidase inhibition, β-glucosidase (SA); type: biochemical; conditions: p-nitrophenyl β-D-glucoside, PIPES-NaOAc buffer pH 6.5
Description: as §5, §6
(c) β-D-Glucosidase: The stock enzyme solution was prepared by dissolving 15 mg of solid protein (4 units/mg) in 1 mL PIPES-NaOAc buffer solution. This stock enzyme solution was diluted 5-fold for the enzymatic assay.
as §7, §8
as §9, with “calculated.” for “calculated. The same procedure was repeated with five other substrate concentrations.”

[8] = system: Nc1ccn([C@@H]2O[C@H](COP(=O)(O)OP(=O)(O)OP(=O)(O)O)[C@@H](O)[C@H]2O)c(=O)n1; assay: purified protein, by the assay type; conditions: other: pH 9.0, 37° C.
Procedure: as §10, §11, §12

E. coli CMP-sialic acid synthetase (CMP-NeuAc synthetase, EC 2.7.7.43), native enzyme, sequence (P13266 whole entry): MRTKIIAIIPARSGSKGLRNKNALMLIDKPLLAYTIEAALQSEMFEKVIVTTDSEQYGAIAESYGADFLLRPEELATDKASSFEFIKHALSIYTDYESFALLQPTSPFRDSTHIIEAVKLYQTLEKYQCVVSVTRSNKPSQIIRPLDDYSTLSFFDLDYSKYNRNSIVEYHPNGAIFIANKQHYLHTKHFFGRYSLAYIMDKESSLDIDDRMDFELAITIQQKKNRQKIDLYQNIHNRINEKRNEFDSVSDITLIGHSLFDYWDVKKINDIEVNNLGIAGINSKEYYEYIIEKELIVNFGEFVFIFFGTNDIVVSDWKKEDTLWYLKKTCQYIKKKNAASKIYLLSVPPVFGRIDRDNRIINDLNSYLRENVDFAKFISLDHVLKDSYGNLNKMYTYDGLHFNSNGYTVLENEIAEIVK
β-galactosidase (EC 3.2.1.23 from E. coli), sequence (P00722 2-1024): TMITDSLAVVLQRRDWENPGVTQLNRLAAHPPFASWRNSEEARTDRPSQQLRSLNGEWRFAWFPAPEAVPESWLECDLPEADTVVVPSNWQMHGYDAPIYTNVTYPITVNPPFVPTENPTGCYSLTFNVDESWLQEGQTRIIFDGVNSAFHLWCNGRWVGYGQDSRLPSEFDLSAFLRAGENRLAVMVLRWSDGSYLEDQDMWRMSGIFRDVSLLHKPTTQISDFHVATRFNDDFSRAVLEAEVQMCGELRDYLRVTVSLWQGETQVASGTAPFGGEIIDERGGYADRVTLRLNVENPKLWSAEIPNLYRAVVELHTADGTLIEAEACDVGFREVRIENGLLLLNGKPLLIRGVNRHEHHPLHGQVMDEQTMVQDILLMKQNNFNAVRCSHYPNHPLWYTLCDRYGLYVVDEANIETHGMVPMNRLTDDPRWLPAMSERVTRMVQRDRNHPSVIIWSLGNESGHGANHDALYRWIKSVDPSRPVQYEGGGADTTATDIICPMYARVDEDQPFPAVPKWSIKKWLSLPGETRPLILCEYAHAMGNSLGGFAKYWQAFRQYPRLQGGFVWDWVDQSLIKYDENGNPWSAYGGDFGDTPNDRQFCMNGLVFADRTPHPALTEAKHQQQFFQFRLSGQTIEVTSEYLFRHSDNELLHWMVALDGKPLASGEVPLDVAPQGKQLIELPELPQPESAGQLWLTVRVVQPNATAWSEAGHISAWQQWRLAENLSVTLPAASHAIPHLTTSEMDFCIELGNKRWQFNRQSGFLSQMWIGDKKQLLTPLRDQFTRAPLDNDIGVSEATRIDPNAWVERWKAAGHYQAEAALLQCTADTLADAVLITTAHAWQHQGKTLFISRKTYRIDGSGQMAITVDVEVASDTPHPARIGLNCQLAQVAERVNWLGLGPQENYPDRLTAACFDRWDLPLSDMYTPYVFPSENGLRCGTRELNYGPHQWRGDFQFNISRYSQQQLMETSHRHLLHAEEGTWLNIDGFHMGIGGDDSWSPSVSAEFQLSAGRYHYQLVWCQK

Molecule: OC[C@H]1NC[C@H](O)[C@@H](O)[C@@H]1O [Compound 3]
inhibition of β-galactosidase [1]: Neither azasugar was an inhibitor

inhibitory effect [2]: did not exhibit any inhibitory effect
Molecule: OC[C@H]1O[C@@H](O[C@H]2[C@H](O)C=CO[C@@H]2CO)[C@H](O)[C@@H](O)[C@H]1O [Compound 8, P-D-Galactopyranosyl-(1,4)-D-glucal]

Molecule: CC(=O)N[C@H]1[C@H]([C@H](O)[C@H](O)CO)OC(O)(C(=O)O)C[C@@H]1O (stereo partly drawn) [NeuAc, N-acetylneuraminic acid]
Km ([3]; read-out: Km for NeuAc): 4 mM
kcat ([3]; substrates NeuAc and CTP): 1.8 s⁻¹

IC50 ([2]; Example 8): ~40000 µM
IC50 ([2]; Table 1a, 14C-GDP-fucose, pH 6.2, 37° C., IC50 extrapolated from linear fit): 40000 µM
Molecule: OC[C@H]1NC[C@H](O)[C@@H](O)[C@@H]1O[C@@H]1O[C@H](CO)[C@H](O)[C@H](O)[C@H]1O [Compound 10a, 6-D-Galactopyranosyl-(1,4) -deoxynojirimycin]

Molecule: E. coli CMP-sialic acid synthetase (CMP-NeuAc synthetase, EC 2.7.7.43), modified (tagged) enzyme with C-terminal decapeptide tag, SEQ ID NO:3 (Escherichia coli RS218)
Km [4]: 4.8 mM
kcat [4]: 1.9 s⁻¹
Km [5]: 1.99 mM

Molecule: C[C@H]1NC[C@H](O)[C@@H](O)[C@@H]1O [Compound 103c, (2R)-methyl-(3R,4R,5S)-trihydroxypiperidine]
Ki [6]: 1560 µM
Ki [7]: 780 µM

Molecule: C[C@@H]1[C@@H](O)[C@H](O)[C@@H](O)CN1C [Compound 117, (1,2R)-dimethyl-(3R,4R,5S)-trihydroxypiperidine]
Ki [6]: 1780 µM
Ki [7]: 140 µM

Molecule: C[C@@H]1[C@@H](O)[C@H](O)[C@@H](O)C[N@+]1(C)[O-] [Compound 118, (1,2R)-dimethyl-(3R,4R,5S)-trihydroxypiperidine oxide]
Ki [6]: 6950 µM
Ki [7]: 1490 µM

inhibitory effect [2]: did not exhibit any inhibitory effect
Molecule: C=CCO[C@@H]1O[C@H](CO)[C@@H](O[C@@H]2O[C@H](CO)[C@H](O)[C@H](O)[C@H]2O)C[C@H]1NC(C)=O [Compound 2i, Allyl β-D-galactopyranosyl-(1,4)-2-acetamido-2,3-dideoxy-β-D-glucopyranoside]

Molecule: E. coli CMP-sialic acid synthetase (CMP-NeuAc synthetase, EC 2.7.7.43), native enzyme (Escherichia coli RS218)
Km [8]: 0.31 mM

Molecule: C[C@H]1NC[C@H](O)[C@@H](O)[C@@H]1O [Compound 4]
inhibition of β-galactosidase [1]: Neither azasugar was an inhibitor
